Test results published in publication PMC10367051, “Comprehensive Mechanistic View of the Hydrolysis of Oxadiazole-Based Inhibitors by Histone Deacetylase 6 (HDAC6)” (ACS Chemical Biology, 2023).

Legend:
HDAC6 = target: T1, HDAC6 (Homo sapiens, UniProt Q9UBN7); assay: Fluorometric HDAC inhibition assay, HDAC6; type: biochemical; conditions: purified human protein; Ac-Gly-Ala-[Lys-Ac]-AMC substrate 10 μM; 15 min preincubation
T1 construct: TwinStrep-FLAG-HALO (N, cleaved yes); made in house; host or cells: HEK293/T17
T1 sequence (Q9UBN7 1-1215): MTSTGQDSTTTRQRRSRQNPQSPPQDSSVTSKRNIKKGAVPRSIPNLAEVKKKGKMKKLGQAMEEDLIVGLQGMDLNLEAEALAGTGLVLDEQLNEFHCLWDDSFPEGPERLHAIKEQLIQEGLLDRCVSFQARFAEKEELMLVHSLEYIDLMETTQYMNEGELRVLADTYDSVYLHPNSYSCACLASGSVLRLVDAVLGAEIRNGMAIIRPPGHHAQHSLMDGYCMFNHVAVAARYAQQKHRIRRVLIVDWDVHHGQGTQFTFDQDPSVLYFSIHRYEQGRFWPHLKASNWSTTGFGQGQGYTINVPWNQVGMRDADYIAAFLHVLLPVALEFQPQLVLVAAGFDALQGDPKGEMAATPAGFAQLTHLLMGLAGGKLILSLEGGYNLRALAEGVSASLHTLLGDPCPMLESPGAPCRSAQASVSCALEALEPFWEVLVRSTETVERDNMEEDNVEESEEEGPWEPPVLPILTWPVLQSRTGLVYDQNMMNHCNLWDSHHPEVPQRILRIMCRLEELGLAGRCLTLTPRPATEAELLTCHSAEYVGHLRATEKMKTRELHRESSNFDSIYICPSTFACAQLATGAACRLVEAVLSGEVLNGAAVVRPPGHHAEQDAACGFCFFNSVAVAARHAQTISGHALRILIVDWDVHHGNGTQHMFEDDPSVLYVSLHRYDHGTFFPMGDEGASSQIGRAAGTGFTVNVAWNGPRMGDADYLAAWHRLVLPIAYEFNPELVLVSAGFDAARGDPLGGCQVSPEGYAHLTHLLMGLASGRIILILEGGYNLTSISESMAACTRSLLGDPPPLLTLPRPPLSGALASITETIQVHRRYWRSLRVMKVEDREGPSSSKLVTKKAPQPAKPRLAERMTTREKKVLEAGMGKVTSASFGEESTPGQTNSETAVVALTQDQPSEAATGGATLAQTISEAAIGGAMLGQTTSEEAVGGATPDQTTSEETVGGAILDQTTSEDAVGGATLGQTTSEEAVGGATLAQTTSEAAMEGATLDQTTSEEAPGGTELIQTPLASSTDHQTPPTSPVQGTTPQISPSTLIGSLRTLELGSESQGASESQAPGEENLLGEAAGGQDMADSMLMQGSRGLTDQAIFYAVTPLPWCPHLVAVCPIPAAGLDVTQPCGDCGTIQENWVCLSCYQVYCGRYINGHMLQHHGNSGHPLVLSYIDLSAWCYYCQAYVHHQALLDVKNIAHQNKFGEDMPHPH
Method: Large-scale expression of recombinant human HDACs was carried out as described previously.[32],[37] Briefly, HEK293/T17 cells were transiently transfected with expression pMM222 plasmids comprising N-terminally tagged (TwinStrep-FLAG-HALO tag; Figure S1) HDAC genes using linear poly(ethyleneimine) (PEI, Polysciences Inc.). Cells were harvested three days post-transfection, and cell pellets were resuspended in the lysis buffer (100 mM Tris-HCl, 10 mM NaCl, 5 mM KCl, 2 mM MgCl2, and 10% glycerol at pH 8.0). Cells were disrupted by sonication, cell lysates were cleared by centrifugation, and soluble fusion proteins were first purified by Streptactin affinity chromatography (IBA). For all HDACs but HDACs 1, 10, and 11, the N-terminal tag was cleaved off overnight by the addition of TEV protease (10:1 HDAC/TEV ratio). Size-exclusion chromatography on a Superose 6 column (GE Healthcare Bio-Sciences; running buffer 30 mM HEPES, 140 mM NaCl, 10 mM KCl, 3% glycerol, and 0.25 mM TCEP) was used as the final purification step for all HDAC constructs.
(§1) Optimized fluorometric assays were used to determine inhibition constants of studied compounds against individual HDAC isoforms as described previously.[32] Briefly, reactions were performed in the activity buffer comprising 50 mM HEPES, 140 mM NaCl, and 10 mM KCl at pH 7.4 supplemented with 1 mg mL^–1 bovine serum albumin (BSA), 1 mM tris(2-carboxyethyl)phosphine (TCEP), 10 μM substrates, and optimized concentrations of HDACs. The Ac-Gly-Ala-[Lys-Ac]-7-amino-methylcoumarylamide (AMC) substrate was used to profile HDACs 1, 2, 3, and 6; Boc-[Lys-TFA]-7-amino-methylcoumarylamide was used for HDACs 4, 5, 7, 8, and 9 (both substrates: Bachem); fluorescein-labeled N8-acetylspermidine was used for HDAC10;[32] and an internally quenched TNFα-derived peptide derivative was used for HDAC11.[39] Deacetylation reactions were monitored either by high-performance liquid chromatography (HPLC) (HDAC10) or by quantification of released AMC (λex/λem = 365/440 nm) using a CLARIOstar plate reader (BMG Labtech GmbH).

zHDAC6 (Y745F) = target: T2, zHDAC6 (Y745F) (Danio rerio, UniProt F8W4B7, Y745F); assay: Inhibition assay, zebrafish HDAC6 catalytic DD2 domain, Y745F mutant; type: biochemical
T2 construct: Danio rerio HDAC6 (amino acids 440–798; zHDAC6); His (N, cleaved yes); MBP (N, cleaved yes); made in house; host or cells: RIPL Escherichia coli
T2 sequence (F8W4B7 440-798 Y745F): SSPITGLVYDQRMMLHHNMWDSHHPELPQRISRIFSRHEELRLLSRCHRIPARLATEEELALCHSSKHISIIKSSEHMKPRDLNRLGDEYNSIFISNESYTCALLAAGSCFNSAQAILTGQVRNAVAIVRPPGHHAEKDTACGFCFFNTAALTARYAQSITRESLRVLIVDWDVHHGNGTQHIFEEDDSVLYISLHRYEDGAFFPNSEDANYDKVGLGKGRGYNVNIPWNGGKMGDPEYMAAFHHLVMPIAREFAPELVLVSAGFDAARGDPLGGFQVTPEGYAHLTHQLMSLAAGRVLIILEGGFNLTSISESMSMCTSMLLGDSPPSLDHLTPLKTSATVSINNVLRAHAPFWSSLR
Method: The second catalytic domain of Danio rerio HDAC6 (amino acids 440–798; zHDAC6) was expressed in RIPL Escherichia coli as described previously using the pEC566-zHDAC6 expression vector.[16],[38] Briefly, bacteria were incubated at 37 °C with shaking (250 rpm) until the optical density reached an OD600 = 0.5. Then, the culture was cooled to 18 °C for 1 h, and recombinant protein expression was induced by the addition of 75 μM isopropyl β-D-1-thiogalactopyranoside together with 200 μM ZnSO4. The culture was grown at 18 °C for an additional 18 h and harvested by centrifugation at 5500g for 15 min. The cell pellet was resuspended in the lysis buffer (50 mM phosphate, 300 mM NaCl, 10% glycerol, and 20 mM imidazole at pH 8; 5 mL g^–1 bacterial pellet) and lysed by three passages through EmulsiFlex (Avestin). Cell lysates were centrifuged (15,000g at 4 °C for 20 min), and the fusion protein in the supernatant was purified via Ni-NTA chromatography. Fractions containing the His-MBP-HDAC6 fusion were concentrated to 2 mg mL^–1 and cleaved overnight by the addition of TEV protease (zHDAC6/TEV 1:20 ratio). The cleaved tag and the TEV protease were sequentially removed using amylose (New England Biolabs) and HisTrap columns (Cytiva), and zHDAC6 was further purified by size-exclusion chromatography on a HiLoad Superdex 75 pg column (GE Healthcare Bio-Sciences). Fractions containing zHDAC6 were pooled, concentrated to 10 mg mL^–1, flash-frozen in liquid nitrogen, and stored at −80 °C. The purity of protein preparations was monitored by SDS-PAGE (Figure S2).
The zHDAC6 mutants (Y745F and H574A) were constructed using the Quick-change site-directed mutagenesis protocol with the pEC566-zHDAC6 expression plasmid as a template. Both mutants were expressed and purified as described above for wild-type zHDAC6 (Figure S2).
as §1

IC50 (HDAC6) [µM] | IC50 (zHDAC6 (Y745F)) [µM] | SMILES
0.085 ± 0.0028 | > 20 | CS(=O)(=O)N(Cc1ccc(-c2nnc(CF)o2)cn1)c1cccc(Cl)c1 [compound 9]
> 100 |  | Cc1nnc(-c2ccc(CN(c3cccc(Cl)c3)S(C)(=O)=O)nc2)o1 [compound 10]
